From US20050002552A1, “Automated in vitro cellular imaging assays for micronuclei and other target objects” (Pfizer Inc, priority 2003, published 2005)
Where two headings read alike, the source gives them in different places.

What was measured:
[1] = tested on: Chinese hamster ovary cells; conditions: cut-off two to three times the negative control value (1.1%); both wells, automated and manual scoring
From the text: A small quantity of a discovery drug candidate will be added to each well (the amount will usually be in the range of from 0 micrograms to about 500 micrograms and often in the range of from 0 micrograms to about 100 micrograms), desirably in a carrier medium containing DMSO (dimethyl sulfoxide), ethanol, methanol, acetonitrile, and/or water.
A mixture such as one containing amino acids (e.g., L-glutamine), serum (e.g., 5% fetal bovine serum), and glucose will be added to the wells to provide an aqueous growth medium for the cells. […] The presence of binucleated cells in the microwell at the end of the process is proof that nuclear division occurred in the presence of the discovery drug candidate.
After the cells become attached to the plate bottom, a chemical stimulus (agent) such as a discovery drug candidate can be added to each well. […]
If more than one micronuclei is found in a single cell, the cell is likely undergoing nuclear fragmentation as a result of apoptosis (programmed cell-death) and, accordingly, should be discarded from the final analysis. The micronuclei rate or frequency can be calculated as the number of micronucleated cells divided by the total number of nuclear division in a sample (the rate or frequency may be converted to a percentage by multiplying the rate or frequency by 100).

[2] = tested on: Chinese hamster ovary cells; conditions: stated as known; cited from earlier work
[3] = tested on: Chinese hamster ovary cells; assay: In vitro micronucleus assay, non-Cytochalasin B protocol (mononucleated cells); conditions: cut-off double the DMSO value (micronuclei frequencies of 1.2% and higher are positive); manual or automated scoring; per run
Method: Accordingly, the method of this invention was also used to determine micronuclei frequency in non-cytokinesis-blocked cell samples (i.e., cell samples that were not treated with Cytochalasin B or the like) and, therefore, which were mononucleated.
In the second set of experiments, Chinese hamster ovary cells were used and the only difference in treatment and image acquisition protocol between runs in this set was the stimulus (i.e., chemical agent) with which the cells were incubated. Cytochalasin B was not used is this set of experiments (and, thus, the cells remained virtually all mononucleated throughout the experiment).

## CO[C@@]12[C@H](COC(N)=O)C3=C(C(=O)C(C)=C(N)C3=O)N1C[C@@H]1N[C@@H]12 [Mitomycin C]
[1]
  Response call (clastogenic/aneugenic) against negative control: positive response
[2]
  Known aneugenicity/clastogenicity (positive control): aneugenic/clastogenic
[3]
  Response call (clastogenic/aneugenic) against negative control: positive
